In a melting point compilation (Tetko et al.; mined from patent text by program, amines drawn as free bases though some values may be those of a salt) one finds melting point data, which are given here for 90 molecules.

`N#CCCNC(=O)c1cc(F)cc(-c2cccc3cc(Cc4cc(F)cc(Cl)c4)sc23)c1` had a melting point of 113 to 114 °C.
Take `N#Cc1c(N2CCc3ccccc3CC2)nc(CSc2ccccc2)[nH]c1=O`: the melting point lay within 189 to 194 °C.
`O=c1[nH]c2c(Cl)sc(Cl)c2c(=O)c2cscc12` registered a melting point of 236 to 239 °C.
`O=c1[nH]c(=Cc2ccccc2[N+](=O)[O-])c(=O)[nH]c1=Cc1ccc(OCc2ccccc2)cn1` gave a melting point of 295 to 296 °C.
On to `CC(=NC(C#N)=C(N)C#N)c1ccco1`, for which the melting point fell in the range of 175 to 176 °C.
The molecule `CCCC(=O)c1cnc2ccc(O)cc2c1Cl` came in with a melting point of 157 to 160 °C.
Take `CCn1nnnc1Cc1ccc([N+](=O)[O-])cc1`: the melting point lay in the range of 104 to 105 °C.
In the case of `CCCC(=O)OCC(=O)C1(OC(=O)CC)CCC2C3CC(C)C4=CC(=O)CCC4(C)C3C(O)CC21C` (stereo not given) it was 211 °C; in that of `CCOC(=O)c1cc(CC)sc1Nc1ccc(C(F)(F)F)cc1[N+](=O)[O-]`, 102 °C; in that of `C[C@@H]1O[C@](C#Cc2ccoc2)(C(F)(F)F)c2cc(Cl)ccc2NC1=O` (relative stereo), 214 to 215 °C.
The same measure for `CCOC(=O)c1c(C)cc2c(=O)n(-c3ccccc3C(=O)O)cnc2c1C`: 207 to 210 °C.
For the molecule `COc1ccc(F)cc1NC(=O)Nc1ccc(N2CCN(C(=O)Nc3ccc(OCCO)cc3C(F)(F)F)CC2)cc1`, the melting point is 140 to 141 °C.
In the case of `O=c1c2ccc(O)cc2oc2c([N+](=O)[O-])ccc(Cl)c12` it was 179 to 182 °C; in that of `NS(=O)(=O)CS(=O)(=O)c1ccc(SCCO)cc1`, 136 to 137 °C.
In the case of `CNc1nc(-c2cccc(-c3ccc(SC)cc3)c2)c2cc(OC)c(OC)cc2n1` it was 140 to 142 °C.
As for `Oc1ccc(O)c(F)c1`, the melting point lay in the range of 33 to 35 °C.
Consider `CC1c2cccc3c2N(CC3)c2ccccc2N1C(=O)CN(C)C` (stereo not given), for which the melting point was 104 to 108 °C.
As to `CN1C(=O)c2[nH]c3ccccc3c2Oc2ccccc21`, the melting point was 247 to 248 °C.
On to `COc1cc(Cl)c(N=C2NCCN2O)c(Cl)c1`, for which the melting point fell in the range of 199 to 201 °C.
In turn, `Cc1ccc(S(=O)(=O)N[C@@H](C)C(=O)Oc2c[nH]c(-c3ccccc3)c2)cc1` had a melting point of 154 to 155 °C.
`NC(=O)CC(CC(N)=O)c1c(Cl)cccc1Cl` had a melting point of 221 to 225 °C.
In turn, `O=C(O)Cc1ccc(Oc2ccccc2CC(=O)O)cc1` displayed a melting point of 150 to 152 °C.
In the case of `Cc1ccc(-c2cccc3c2OC(COS(=O)(=O)c2ccc(C)cc2)C3)cc1` (stereo not given) it was 145 to 147 °C; in that of `Cc1ccc(CNc2ccc3c(C#N)cccc3n2)o1`, 102 °C; in that of `Cc1ccc(S(=O)(=O)OCCCC2CCN(C(=O)OCc3ccccc3)CC2)cc1`, 59 to 60 °C.
As for `CCC(=O)Nc1ccccc1-c1nc2ccccc2[nH]1`, the melting point is > 200 °C.
Molecule `Cc1ccc([C@@H](O)C=CC(C)(C)C)cc1` registered a melting point of 38 to 40 °C.
Consider `CC(C)(C)OC(=O)C(Nc1ccccc1)c1cccc(Cl)c1` (racemic), for which the melting point stood at 96 °C.
On to `Cc1cccc(Nc2ccccc2[N+](=O)[O-])c1C`, for which the melting point lay in the range of 118 to 120 °C.
`C=CCSc1ccc2[nH]c(NC(=O)OC)nc2c1` came in with a melting point of 197 to 198 °C.
With `CC(C)(C)OC(=O)NCC1C2CN(C(=O)C(O)(c3ccccc3)C3CCCC3)CC12` (stereo not given), the melting point lay within 76 to 79.6 °C.
Take `CN1CCN(C[C@H]2C(=O)Nc3ccccc3S[C@H]2c2ccccc2)CC1` (relative stereo): the melting point was 198 °C.
For the molecule `O=c1[nH][nH]c(C(F)(F)F)c1Cc1ccc(F)cc1`, the melting point was 159 to 160 °C.
`CC(C)(C)OC(=O)Nc1cc(OCC2COC(=O)O2)c(C#Cc2ccccc2)cc1NC(=O)CC(=O)c1cccc(C#N)c1` (racemic) returned a melting point of 181 °C.
Molecule `CCOc1ccc(OCCOCCOC)c2c1C(=O)N(CSc1ccccc1)S2(=O)=O` registered a melting point of 73 to 75 °C.
In the case of `O=c1oc(-c2ccccc2)nc2cccc(Cl)c12` it was 151 to 153 °C; in that of `O=C(O)C(Cl)(Cl)CCCCCCCCCCCCS(=O)c1ccccc1` (stereo not given), 68 °C.
The molecule `C=C1CC2CC(O)CCC2(C)C2CCC3(C)C(C(C)CCC(=O)O)CCC3C12` (stereo not given) came in with a melting point of 104 to 105 °C.
As for `O=CN(O)C(CO)CS(=O)(=O)c1ccc(-c2ccc(OC(F)(F)F)cc2)cc1` (stereo not given), the melting point lay in the range of 167 to 168 °C.
For the molecule `Cc1oc(-c2ccc3ccccc3c2)nc1COc1ccc(COc2ncccc2CO)cc1`, the melting point lay within 161 to 162 °C.
In the case of `CC(C)(C)c1cc(-c2nnc(NC#N)s2)cc(C(C)(C)C)c1O` it was > 250 °C; in that of `CCOc1cc(C(=O)O)on1`, 210 to 213 °C.
As for `Cc1cccc(COc2cccc(OCc3nc(-c4ccccc4)oc3C)c2)c1C(=O)O`, the melting point was 144 to 145 °C.
On to `CCc1ccccc1CC1CNC(=O)O1` (stereo not given), for which the melting point lay in the range of 104 to 105 °C.
`COc1cccc(NCC(=O)Nc2ccc(S(N)(=O)=O)cc2Cl)c1` yielded a melting point of 148 to 152 °C.
Take `O=C1Nc2ccncc2C(=O)C1c1c(F)cccc1Cl` (stereo not given): the melting point turned out to be 249 °C.
`COC(=O)c1ccc(=O)n(CCCNC(=O)c2ccccn2)c1`: the melting point fell in the range of 115 to 116 °C.
The same measure for `Cc1c2c(nn1-c1ccccc1)c(=O)[nH]c1ccccc12`: > 250 °C; for `CNC(=O)c1cc2nc(C(F)(F)F)ccc2c(Cl)c1NC(=O)c1cc(C(F)(F)F)nn1-c1ncccc1Cl`: 235 to 237 °C.
On to `FC(F)Oc1ccc(-c2nc3ccc(OC(F)(F)F)cc3[nH]2)cc1`, for which the melting point was in the range of 185 to 187 °C.
For the molecule `O=C(Nc1ccc(-n2nc(C(F)(F)F)cc2C(F)(F)F)cc1)Nc1cccc([N+](=O)[O-])c1`, the melting point lay in the range of 203 to 204 °C.
`CCCOC(=O)c1c(CBr)nc2cc(OC)c(OC)cc2c1-c1ccc(OC)c(OC)c1` came in with a melting point of 144 to 145 °C.
As for `CS(=O)(=O)Cc1cc(C(=O)CBr)ccc1OCc1ccccc1`, the melting point was 143 to 144 °C.
On to `CCCCN(CCCC)S(=O)(=O)c1cc(C(=O)O)ccc1Cl`, for which the melting point fell in the range of 93 to 96 °C.
`CCOC(=O)c1cc(NC(=O)c2ccc(C)cc2)ccc1N` gave a melting point of 167 to 171 °C.
In the case of `O=C1CC2(Cc3cc4ccccc4n3C2)C(=O)N1` (stereo not given) it was 215 to 220 °C.
In the case of `CC(=O)Oc1cccc2c1C(=O)c1c(OC(C)=O)cccc1C2C(=O)C1CCCC1`, the melting point turned out to be 180 °C.
Take `O=c1c(-c2ccc(Cl)cc2)coc2cc(O)c(O)cc12`: the melting point amounted to 299 °C.
On to `COCC(COc1noc2ccc(Cl)cc12)NC=O` (stereo not given), for which the melting point was 90 to 92 °C.
In the case of `Cc1ccccc1C(=O)N1CCc2nnc(NN)cc2C1` it was 98 to 100 °C; in that of `NC(=O)c1ccccc1OCCNCC(O)COc1nccnc1Cl` (stereo not given), 132 to 133 °C.
The molecule `CCOC=Cc1c(OC)c(=O)[nH]c2cc(Cl)ccc2c1=O` displayed a melting point of 202 to 204 °C.
As for `CCCC(=O)C1=C(O)CC(c2c(C)c(C)c(C)c(C)c2S(C)(=O)=O)CC1=O` (stereo not given), the melting point stood at 132 °C.
In turn, `CN1Cc2c(C=NO)ncn2-c2ccc(F)cc2C1=O` registered a melting point of 247 to 250 °C.
In the case of `O=C(Nc1ccccn1)c1sc(Nc2ccccc2)c2c1CCc1cnoc1-2` it was 196 to 197 °C; in that of `O=[N+]([O-])c1ccc(Oc2cccc3cccnc23)cc1`, 165 to 166 °C.
Turning to `O=P(O)(CCc1ccccc1)CCc1ccccc1`, the melting point lay in the range of 84 to 87 °C.
`O=C1c2cccnc2CCCC1Br` (stereo not given): the melting point lay in the range of 193 to 195 °C.
The same measure for `Cc1nc2cc(Cl)c(C)c(Cl)c2o1`: 80 to 82 °C.
In the case of `O=C(O)CCc1[nH]nc2c1CCC2` it was 157 to 159 °C; in that of `O=C(NC1CCN(CCCOc2ccc3ccc(=O)oc3c2)CC1)c1ccccc1`, 157 to 158 °C.
Regarding `CCn1c(=O)c2[nH]c(/C=C/c3cc4c(cc3Br)OCO4)nc2n(CC)c1=O`, the melting point is > 270 °C.
With `O=C(Nc1ccc2[nH]ncc2c1)O[C@@H](c1cccc(I)c1)[C@@H]1CCCCN1`, the melting point was 126 °C.
For `O=C(Cn1c(-c2ccc(Br)cc2)nc2cccnc21)N1CCCCC1`, the melting point lay within 175 to 176 °C.
In the case of `Cc1[nH]cnc1CSCCNc1nnc(Cc2cccnc2)c(=O)[nH]1` it was 232 to 233 °C; in that of `CN1CCN(c2c(F)cc3c(=O)c(C(=O)O)cn(C4CC4)c3c2C#N)CC1`, 264 to 265 °C.
In the case of `COc1cc(C=O)ccc1OCCCCCCOC(C)=O` it was 74 to 75 °C; in that of `CCCc1c(OCc2ccc(CC#N)cc2)ccc(C(C)=O)c1O`, 75 to 76 °C.
Regarding `N#Cc1nc2cc(O)ccc2s1`, the melting point is 194 °C.
Regarding `CC(C)C(=O)Nc1nc(N)cnc1-c1cc(Cl)cc(Cl)c1Cl`, the melting point was 105 to 108 °C.
On to `COc1ccc2c(c1)c(Cc1cc(=O)n(-c3ccccc3)[nH]1)c(C)n2C(=O)c1ccc(Cl)cc1`, for which the melting point fell in the range of 148 to 150 °C.
The same measure for `Cc1nnc(-c2ccc3occ(-c4ccc(S(=O)(=O)Cc5ccccc5)cc4)c3c2)o1`: 229 to 230 °C; for `Oc1cccc2c1c1cccc(F)c1n2Cc1ccccc1`: 155 to 156 °C; for `Cc1ccccc1C1NS(=O)(=O)c2ccccc21` (single isomer, unassigned; (+)): 109 to 111 °C.
The molecule `CN(CCc1ccc2c(c1)OCO2)C(C)(C)CCC(C(N)=O)(c1ccccc1)c1ccccc1` returned a melting point of 165 °C.
For the molecule `CS(=O)(=O)Nc1cccc(S(=O)(=O)N2CCC(Nc3nc(Nc4cccc(C(F)(F)F)c4)nc(OCC(F)(F)F)n3)CC2)c1`, the melting point was 249 to 251 °C.
The same measure for `O=C(O)C(O)Cn1nnnc1S` (stereo not given): 143 to 146 °C.
Regarding `COc1cc(CCl)c(CCl)cc1OCCCl`, the melting point fell in the range of 117 to 118 °C.
Take `CCCCCCC(C)(C)c1ccc(C2CCCNC2)c(O)c1` (stereo not given): the melting point lay within 138 to 140 °C.
The same measure for `COC(=O)CCC(=O)c1cc(C(C)C)c(Oc2nnnn2-c2ccccc2)c(C(C)C)c1`: 122 to 123 °C.

For orientation: melting point means the temperature, or range, at which the solid turns liquid.
